The values that follow are results of earlier work, collected in PMC3674230 (Chemical communications (Cambridge, England), 2012).

Molecules are shown by their SMILES.

The term IC50 denotes the concentration at which inhibition is half-maximal.

The data set deals with Zn(II)-dependent matrix metalloproteinases (MMP). The following applies: direct metal coordination.

`CC(=O)NO` [acetohydroxamic acid]: the IC50 was ~25 mM.
